In patent publication US9302999B2, “Substituted triazoles as herbicides” (E. I. DU PONT DE NEMOURS AND COMPANY, priority 2012, dated 2016):

How the values were obtained:
[1] = system: lambsquarters (Chenopodium album); test: Test E pre-/postemergence: lambsquarters; format: in vivo; settings: Preemergence, scale 0 to 100
Text: (§1) Seeds of plant species selected from corn (Zea mays), soybean (Glycine max), velvetleaf (Abutilon theophrasti), lambsquarters (Chenopodium album), poinsettia, wild (wild poinsettia, Euphorbia heterophylla), pigweed, palmer (palmer pigweed, Amaranthus palmeri), waterhemp (common waterhemp, Amaranthus rudis), smartweed (ladysthumb smartweed, Polygonum persicaria), surinam grass (Brachiaria decumbens), crabgrass, large (large crabgrass, Digitaria sanguinalis), crabgrass, Brazil (Brazilian crabgrass, Digitaria horizontalis), panicum, fall (fall panicum, Panicum dichotomiflorum), foxtail, giant (giant foxtail, Setaria faberii), foxtail, green (green foxtail, Setaria viridis), goosegrass (Eleusine indica), johnsongrass (Sorghum halepense), ragweed (common ragweed, Ambrosia elation), barnyardgrass (Echinochloa crus-galli), sandbur (southern sandbur, Cenchrus echinatus), arrowleaf sida (Sida rhombifolia), ryegrass, Italian (Italian ryegrass, Lolium multiflorum), dayflower, (VA) (Virginia dayflower, Commelina virginica), field bindweed (Convolvulus arvensis), cocklebur (common cocklebur, Xanthium strumarium), morningglory (Ipomoea coccinea), nightshade (eastern black nightshade, Solanum ptycanthum), kochia (Kochia scoparia), nutsedge, yellow (yellow nutsedge, Cyperus esculentus) and beggarticks (hairy beggarticks, Bidens pilosa) were planted into a silt loam soil and treated preemergence with test chemicals formulated in a non-phytotoxic solvent mixture which included a surfactant. At the same time, plants selected from these crop and weed species were planted in pots containing a growing medium comprising spaghnum peat moss, vermiculite, wetting agent and starter nutrients and treated with postemergence applications of some of the test chemicals formulated in the same manner. Plants ranged in height from 2 to 18 cm for postemergence treatments (1- to 4-leaf stage).
(§2) Treated plants and controls were maintained in a greenhouse for 14 to 21 days, after which time all species were compared to controls and visually evaluated. Plant response ratings, summarized in Table E, are based on a scale of 0 to 100 where 0 is no effect and 100 is complete control. A dash (-) response means no test result.

[2] = system: sandbur (southern sandbur, Cenchrus echinatus); test: Test E pre-/postemergence: sandbur; format: in vivo; settings: scale 0 to 100
Text: as §1, §2

[3] = system: crabgrass, Brazil (Brazilian crabgrass, Digitaria horizontalis); test: Test F pre-/postemergence: crabgrass, Brazil; format: in vivo
Text: Seeds of plant species selected from corn (Zea mays), soybean (Glycine max), velvetleaf (Abutilon theophrasti), lambsquarters (Chenopodium album), poinsettia, wild (wild poinsettia, Euphorbia heterophylla), pigweed, palmer (palmer pigweed, Amaranthus palmeri), waterhemp (common waterhemp, Amaranthus rudis), surinam grass (Brachiaria decumbens), crabgrass, Brazil (Brazilian crabgrass, Digitaria horizontalis), panicum, fall (fall panicum Panicum dichotomiflorum), crabgrass, large (large crabgrass, Digitaria sanguinalis), foxtail, giant (giant foxtail, Setaria faberii), foxtail, green (green foxtail Setaria viridis), goosegrass (Eleusine indica), ragweed (common ragweed, Ambrosia elatior), barnyardgrass (Echinochloa crus-galli), sandbur (southern sandbur, Cenchrus echinatus), arrowleaf sida (Sida rhombifolia), ryegrass, Italian (Italian ryegrass, Lolium multiflorum), dayflower, VA (Virginia (VA) dayflower, Commelina virginica), field bindweed (Convolvulus arvensis), cocklebur (common cocklebur, Xanthium strumarium), morningglory (Ipomoea coccinea), nightshade (eastern black nightshade, Solanum ptycanthum), kochia (Kochia scoparia), nutsedge, yellow (yellow nutsedge, Cyperus esculentus), johnsongrass (Sorghum halepense), smartweed (ladysthumb smartweed, Polygonum persicaria), and beggarticks (hairy beggarticks, Bidens pilosa), were planted into a silt loam soil and treated preemergence with test chemicals formulated in a non-phytotoxic solvent mixture which included a surfactant. At the same time, plants selected from these crop and weed species and also pigweed (Amaranthus retroflexus), waterhemp_RES1 (ALS/Triazine resistant common waterhemp, Amaranthus rudis) and waterhemp_RES2 (ALS/HPPD resistant common waterhemp, Amaranthus rudis) were planted in pots containing a planting medium comprising spaghnum peat moss, vermiculite, wetting agent and starter nutrients treated with postemergence applications of some of the test chemicals formulated in the same manner. Plants ranged in height from 2 to 18 cm for postemergence treatments (1- to 4-leaf stage).
as §2

[4] = system: Waterhemp; test: Test C postemergence: waterhemp; format: in vivo, Amaranthus rudis
Text: (§3) Seeds of plant species selected from blackgrass (Alopecurus myosuroides), bromegrass, downy (downy bromegrass, Bromus tectorum), foxtail, green (green foxtail, Setaria viridis), ryegrass, Italian (Italian ryegrass, Lolium multiflorum), winter wheat (Triticum aestivum), wild oat (Avena fatua), galium (catchweed bedstraw, Galium aparine), bermudagrass (Cynodon dactylon), surinam grass (Brachiaria decumbens), cocklebur (common cocklebur, Xanthium strumarium), corn (Zea mays), large crabgrass (Digitaria sanguinalis), woolly cupgrass (Eriochloa villosa), foxtail, giant (giant foxtail, Setaria faberii), goosegrass (Eleusine indica), johnsongrass (Sorghum halepense), kochia (Kochia scoparia), lambsquarters (Chenopodium album), morningglory (Ipomoea coccinea), nightshade (eastern black nightshade, Solanum ptycanthum), nutsedge, yellow (yellow nutsedge, Cyperus esculentus), pigweed (Amaranthus retroflexus), ragweed (common ragweed, Ambrosia elation), soybean (Glycine max), common (oilseed) sunflower (Helianthus annuus), Russian thistle (Salsola kali) and velvetleaf (Abutilon theophrasti) were planted into a blend of loam soil and sand and treated preemergence with test chemicals formulated in a non-phytotoxic solvent mixture which included a surfactant.
(§4) At the same time, plants selected from these crop and weed species and also barley (winter barley, Hordeum vulgare), canarygrass (Phalaris minor), chickweed (common chickweed, Stellaria media) windgrass (Apera spica-venti) and deadnettle (henbit deadnettle, Lamium amplexicaule) were planted in pots containing Redi-Earth® planting medium (Scotts Company, 14111 Scottslawn Road, Marysville, Ohio 43041) comprising spaghnum peat moss, vermiculite, wetting agent and starter nutrients and treated with postemergence applications of test chemicals formulated in the same manner. Plants ranged in height from 2 to 18 cm (1- to 4-leaf stage) for postemergence treatments.
as §2, with “13” for “14”, “15” for “21”, “C,” for “E,”

[5] = system: barnyardgrass (Echinochloa crus-galli); test: Test C pre-/postemergence: barnyardgrass; format: in vivo; settings: Preemergence, 250 g ai/ha; scale 0 to 100, 0 no effect, 100 complete control
Text: as §3, §4
as §2, with “13” for “14”, “15” for “21”, “C,” for “E,”

[6] = system: Oilseed Rape; test: Test C preemergence: oilseed rape; format: in vivo, Brassica napus; settings: 125 g ai/ha, scale 0 to 100, 0 no effect, 100 complete control
[7] = system: Oilseed Rape; test: Test C preemergence: oilseed rape; format: in vivo; settings: scale of 0 to 100, 0 is no effect, 100 is complete control
Text: as §3
as §2, with “13” for “14”, “15” for “21”, “C,” for “E,”

[8] = Postemergence, 8 g ai/ha, scale 0 to 100
[9] = Postemergence, 16 g ai/ha, scale 0 to 100
[10] = Postemergence, 31 g ai/ha, scale 0 to 100
[11] = Postemergence, 62 g ai/ha, scale 0 to 100
[12] = Preemergence, 16 g ai/ha, scale 0 to 100 (0 no effect, 100 complete control)
[13] = Preemergence, 31 g ai/ha, scale 0 to 100 (0 no effect, 100 complete control)
[14] = Preemergence, 62 g ai/ha, scale 0 to 100
[15] = 125 g ai/ha, scale 0 to 100, 0 no effect, 100 complete control

| Structure (SMILES) | Plant response rating: Lambsquarters ([1]; 16 g ai/ha) | Plant response rating: Lambsquarters ([1]; 31 g ai/ha) | Plant response rating: Lambsquarters ([1]; 62 g ai/ha) | Plant response rating: Lambsquarters ([1]; 125 g ai/ha) | Plant response rating: Sandbur ([2]; Preemergence, 16 g ai/ha) | Plant response rating: Sandbur ([2]; Preemergence, 31 g ai/ha) | Plant response rating: Sandbur ([2]; Preemergence, 62 g ai/ha) | Plant response rating, Waterhemp [4, 15] | Plant response rating, Barnyardgrass [5] | Plant response rating, Oilseed Rape [6] | Plant response rating, Oilseed Rape ([7]; 62 g ai/ha) | further results |
| --- | --- | --- | --- | --- | --- | --- | --- | --- | --- | --- | --- | --- |
| Cc1nn(-c2ccc(F)cc2)nc1Cc1ccnc(C(F)(F)F)c1 [Compound 16, 4-[[2-(4-fluorophenyl)-5-methyl-2H-1,2,3-triazol-4-yl]methyl]-2-(trifluoromethyl)pyridine] | 0 | 75 | 98 | 98 | 0 | 10 | 50 | – | – | – | – | Plant response rating: Lambsquarters ([1]; 8 g ai/ha): 0; Plant response rating: Sandbur ([2]; Preemergence, 8 g ai/ha): 0; Plant response rating: Sandbur ([2]; Preemergence, 125 g ai/ha): 60 |
| Cc1nn(-c2ccc(C(F)(F)F)cc2)nc1Cc1ccnc(C(F)(F)F)c1 [Compound 47, 4-[[5-methyl-2-[4-(trifluoromethyl)phenyl]-2H-1,2,3-triazol-4-yl]methyl]-2-(trifluoromethyl)pyridine] | 95 | 95 | 98 | 100 | 0 | 20 | 90 | – | – | – | – | Plant response rating: Lambsquarters ([1]; 250 g ai/ha): 100; Plant response rating: Sandbur ([2]; Postemergence, 250 g ai/ha): 50; Plant response rating: Sandbur ([2]; Postemergence, 16 g ai/ha): 20; Plant response rating: Sandbur ([2]; Postemergence, 31 g ai/ha): 25; Plant response rating: Sandbur ([2]; Postemergence, 62 g ai/ha): 25; Plant response rating: Sandbur ([2]; Postemergence, 125 g ai/ha): 30; Plant response rating: Sandbur ([2]; Preemergence, 250 g ai/ha): 100 |
| Cc1nn(-c2ccc(F)cc2)nc1Oc1ccnc(C(F)(F)F)c1 [Compound 129, 4-[[2-(4-fluorophenyl)-5-methyl-2H-1,2,3-triazol-4-yl]oxy]-2-(trifluoromethyl)pyridine] | 0 | 0 | 75 | 98 | 0 | 20 | 20 | – | – | – | – | Plant response rating: Lambsquarters ([1]; 8 g ai/ha): 0; Plant response rating: Sandbur ([2]; Preemergence, 8 g ai/ha): 0; Plant response rating: Sandbur ([2]; Preemergence, 125 g ai/ha): 50 |
| Cc1nn(-c2ccc(F)c(F)c2)nc1Oc1ccnc(C(F)(F)F)c1 [Compound 145] | – | – | – | – | – | – | – | – | – | – | – | Plant response rating, Crabgrass, Brazil [3, 8]: 15; Plant response rating, Crabgrass, Brazil [3, 9]: 25; Plant response rating, Crabgrass, Brazil [3, 10]: 40; Plant response rating, Crabgrass, Brazil [3, 11]: 40; Plant response rating, Crabgrass, Brazil ([3]; Postemergence, 125 g ai/ha, scale 0 to 100): 50 |
| CCCc1nn(-c2ccc(F)cc2)nc1Cc1ccnc(C(F)(F)F)c1 [Compound 153] | – | – | – | – | – | – | – | 98 | 100 | 98 | 95 | Plant response rating, Crabgrass, Brazil [3, 12]: 98; Plant response rating, Crabgrass, Brazil [3, 13]: 100; Plant response rating, Crabgrass, Brazil [3, 14]: 100; Plant response rating, Crabgrass, Brazil ([3]; Preemergence, 125 g ai/ha, scale 0 to 100): 100; Plant response rating, Crabgrass, Brazil ([3]; Preemergence, 250 g ai/ha, scale 0 to 100): 100; Plant response rating, Oilseed Rape ([7]; 31 g ai/ha): 90 |
| Cc1nn(-c2ccc(C(F)(F)F)c(F)c2)nc1Cc1ccnc(C(F)(F)F)c1 [Compound 162] | – | – | – | – | – | – | – | 100 | 100 | 100 | 100 | Plant response rating, Crabgrass, Brazil ([3]; Postemergence, 4 g ai/ha, scale 0 to 100): 15; Plant response rating, Crabgrass, Brazil [3, 8]: 15; Plant response rating, Crabgrass, Brazil [3, 9]: 15; Plant response rating, Crabgrass, Brazil [3, 10]: 20; Plant response rating, Crabgrass, Brazil [3, 11]: 30; Plant response rating, Crabgrass, Brazil ([3]; Preemergence, 4 g ai/ha, scale 0 to 100, 0 no effect, 100 complete control): 0; Plant response rating, Crabgrass, Brazil ([3]; Preemergence, 8 g ai/ha, scale 0 to 100, 0 no effect, 100 complete control): 100; Plant response rating, Crabgrass, Brazil [3, 12]: 100; Plant response rating, Crabgrass, Brazil [3, 13]: 100; Plant response rating, Crabgrass, Brazil [3, 14]: 100; Plant response rating, Oilseed Rape ([7]; 31 g ai/ha): 80 |
| CCc1nn(-c2ccc(F)cc2)nc1Oc1ccnc(C(F)(F)F)c1 [Compound 166] | – | – | – | – | – | – | – | 98 | 100 | 90 | 50 | – |
| CCCc1nn(-c2ccc(C(F)(F)F)c(F)c2)nc1Oc1ccnc(C(F)(F)F)c1 [Compound 185] | – | – | – | – | – | – | – | 95 | 100 | 100 | 85 | Plant response rating, Waterhemp ([4]; 250 g ai/ha, scale 0 to 100 (0 no effect, 100 complete control)): 100 |
| CCOc1nn(-c2ccc(Br)cc2)nc1Cc1ccnc(C(F)(F)F)c1 [Compound 189] | – | – | – | – | – | – | – | – | – | 85 | 70 | – |
